From PMC4858680, “A platinum-based hybrid drug design approach to circumvent acquired resistance to molecular targeted tyrosine kinase inhibitors” (Scientific Reports, 2016)
Like-named read-outs stand apart in the source and are kept apart here.

Experiments:
[1] = biological target: ABL1(Q252H)-phosphorylated (Homo sapiens, UniProt P00519, Q252H); conditions: 10 μM
[2] = biological target: ABL1(T315I)-nonphosphorylated (Homo sapiens, UniProt P00519, T315I); conditions: 10 μM
[3] = biological target: T1, ABL1-phosphorylated (Homo sapiens, UniProt P00519); conditions: 10 μM
[4] = biological target: CSF1R (Homo sapiens, UniProt P07333); conditions: 10 μM
[5] = biological target: T2, ABCG2 (MDCKII–ABCG2) (Homo sapiens, UniProt Q9UNQ0); assay: Bidirectional drug transport assay; assay type: in vitro ADME; conditions: 10 μM, mean of three experiments
T2 construct: expressed in transfected cells; host or cells: MDCKII-ABCG2

[6] = biological target: ABL1(Y253F)-phosphorylated (Homo sapiens, UniProt P00519, Y253F); conditions: 10 μM
[7] = biological target: T3, EGFR(T790M) (Homo sapiens, UniProt P00533, T790M); conditions: 10 μM
[8] = tested on: HEK293 Mock transfected; assay: Anticancer activity in mock transfected HEK293; assay type: cell-based; conditions: Bcr-Abl negative
[9] = tested on: K562; assay: Anticancer activity (cytotoxicity) in CML cell line; assay type: cell-based
[10] = biological target: T4, EGFR(L858R) (Homo sapiens, UniProt P00533, L858R); conditions: 10 μM
[11] = biological target: SRC (Homo sapiens, UniProt P12931); assay: biochemical; conditions: read-out: Percent control
[12] = biological target: FRK (Homo sapiens, UniProt P42685); assay: biochemical; conditions: read-out: Percent control
[13] = biological target: T5, EPHA1 (Homo sapiens, UniProt P21709); assay: biochemical; conditions: read-out: Percent control
T5 sequence (P21709 26-976): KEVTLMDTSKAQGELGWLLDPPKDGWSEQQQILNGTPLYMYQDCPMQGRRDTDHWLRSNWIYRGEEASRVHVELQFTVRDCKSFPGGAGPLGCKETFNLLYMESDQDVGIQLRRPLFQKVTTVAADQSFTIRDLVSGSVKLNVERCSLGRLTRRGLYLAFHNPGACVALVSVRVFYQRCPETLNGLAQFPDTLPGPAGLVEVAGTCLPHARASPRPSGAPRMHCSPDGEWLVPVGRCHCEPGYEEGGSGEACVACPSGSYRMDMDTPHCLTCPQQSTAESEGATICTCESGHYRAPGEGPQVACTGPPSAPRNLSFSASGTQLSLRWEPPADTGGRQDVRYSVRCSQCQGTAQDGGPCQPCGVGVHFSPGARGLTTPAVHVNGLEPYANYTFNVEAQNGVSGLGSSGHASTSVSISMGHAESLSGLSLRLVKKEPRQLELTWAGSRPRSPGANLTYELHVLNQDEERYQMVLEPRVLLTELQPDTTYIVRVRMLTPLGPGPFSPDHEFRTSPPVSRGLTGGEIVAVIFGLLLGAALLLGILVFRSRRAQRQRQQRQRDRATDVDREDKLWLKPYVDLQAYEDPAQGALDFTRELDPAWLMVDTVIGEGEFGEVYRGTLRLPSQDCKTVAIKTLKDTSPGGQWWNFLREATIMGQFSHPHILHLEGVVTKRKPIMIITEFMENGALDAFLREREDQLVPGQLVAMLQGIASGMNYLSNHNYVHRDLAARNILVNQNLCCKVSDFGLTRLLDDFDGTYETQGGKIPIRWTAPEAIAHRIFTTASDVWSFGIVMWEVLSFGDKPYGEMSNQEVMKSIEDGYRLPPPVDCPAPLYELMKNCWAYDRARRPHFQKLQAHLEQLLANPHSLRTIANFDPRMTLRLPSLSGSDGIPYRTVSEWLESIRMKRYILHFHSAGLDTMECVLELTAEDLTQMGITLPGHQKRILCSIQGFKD

[14] = biological target: T3, EGFR(T790M); assay: biochemical; conditions: read-out: Percent control
[15] = biological target: T4, EGFR(L858R); assay: biochemical; conditions: read-out: Percent control
[16] = biological target: T1, ABL1-phosphorylated; assay: biochemical; conditions: read-out: Percent control
[17] = biological target: ABL1(M351T)-phosphorylated (Homo sapiens, UniProt P00519, M351T); assay: biochemical; conditions: read-out: Percent control
[18] = biological target: T6, ABCG2 (Homo sapiens, UniProt Q9UNQ0); assay: Bidirectional drug transport assay; assay type: in vitro ADME; conditions: dog, pH 7.4, MDCKII–ABCG2, mean of three experiments
T6 construct: expressed in transfected cells; host or cells: MDCKII-ABCG2

[19] = biological target: ABL1(Q252H)-nonphosphorylated (Homo sapiens, UniProt P00519, Q252H); assay: biochemical; conditions: read-out: Percent control
[20] = biological target: P-gp (Homo sapiens, UniProt P08183); assay: in vitro; conditions: dog, MDCK-MDR1, pH 7.4
[21] = biological target: RET(V804TL) (Homo sapiens, UniProt P07949, V804L); assay: biochemical; conditions: read-out: Percent control

T4 sequence (P00533 25-1210 L858R): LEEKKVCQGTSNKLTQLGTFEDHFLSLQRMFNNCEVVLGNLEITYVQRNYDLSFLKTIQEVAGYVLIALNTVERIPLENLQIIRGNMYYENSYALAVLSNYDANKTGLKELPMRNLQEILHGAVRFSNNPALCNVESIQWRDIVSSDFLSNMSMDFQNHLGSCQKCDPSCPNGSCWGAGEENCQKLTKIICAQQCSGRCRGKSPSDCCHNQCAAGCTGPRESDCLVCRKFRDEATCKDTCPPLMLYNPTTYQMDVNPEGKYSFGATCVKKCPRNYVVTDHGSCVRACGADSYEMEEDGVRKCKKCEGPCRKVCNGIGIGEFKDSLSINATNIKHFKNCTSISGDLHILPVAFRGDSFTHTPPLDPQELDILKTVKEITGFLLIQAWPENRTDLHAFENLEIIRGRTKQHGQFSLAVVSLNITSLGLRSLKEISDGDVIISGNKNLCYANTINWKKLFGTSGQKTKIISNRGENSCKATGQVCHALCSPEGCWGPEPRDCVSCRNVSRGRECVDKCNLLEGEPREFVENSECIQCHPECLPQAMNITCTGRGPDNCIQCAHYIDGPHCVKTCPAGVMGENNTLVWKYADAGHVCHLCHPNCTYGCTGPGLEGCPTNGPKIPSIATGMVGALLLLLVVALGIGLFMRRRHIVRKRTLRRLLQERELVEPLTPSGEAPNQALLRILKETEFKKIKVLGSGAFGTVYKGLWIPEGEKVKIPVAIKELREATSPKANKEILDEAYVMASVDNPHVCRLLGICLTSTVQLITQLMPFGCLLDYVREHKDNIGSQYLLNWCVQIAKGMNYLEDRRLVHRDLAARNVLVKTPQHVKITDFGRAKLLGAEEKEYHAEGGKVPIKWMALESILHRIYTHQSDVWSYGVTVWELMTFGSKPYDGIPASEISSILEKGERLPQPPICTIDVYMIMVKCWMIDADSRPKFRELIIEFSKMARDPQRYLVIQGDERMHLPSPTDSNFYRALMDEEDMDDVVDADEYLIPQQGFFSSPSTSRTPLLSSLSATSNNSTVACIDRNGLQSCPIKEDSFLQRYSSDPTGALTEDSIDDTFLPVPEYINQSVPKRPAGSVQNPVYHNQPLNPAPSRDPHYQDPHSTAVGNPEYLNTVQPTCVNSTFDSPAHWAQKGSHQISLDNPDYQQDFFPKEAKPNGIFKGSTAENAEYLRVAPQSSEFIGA
T6 sequence (Q9UNQ0 whole entry, species assumed): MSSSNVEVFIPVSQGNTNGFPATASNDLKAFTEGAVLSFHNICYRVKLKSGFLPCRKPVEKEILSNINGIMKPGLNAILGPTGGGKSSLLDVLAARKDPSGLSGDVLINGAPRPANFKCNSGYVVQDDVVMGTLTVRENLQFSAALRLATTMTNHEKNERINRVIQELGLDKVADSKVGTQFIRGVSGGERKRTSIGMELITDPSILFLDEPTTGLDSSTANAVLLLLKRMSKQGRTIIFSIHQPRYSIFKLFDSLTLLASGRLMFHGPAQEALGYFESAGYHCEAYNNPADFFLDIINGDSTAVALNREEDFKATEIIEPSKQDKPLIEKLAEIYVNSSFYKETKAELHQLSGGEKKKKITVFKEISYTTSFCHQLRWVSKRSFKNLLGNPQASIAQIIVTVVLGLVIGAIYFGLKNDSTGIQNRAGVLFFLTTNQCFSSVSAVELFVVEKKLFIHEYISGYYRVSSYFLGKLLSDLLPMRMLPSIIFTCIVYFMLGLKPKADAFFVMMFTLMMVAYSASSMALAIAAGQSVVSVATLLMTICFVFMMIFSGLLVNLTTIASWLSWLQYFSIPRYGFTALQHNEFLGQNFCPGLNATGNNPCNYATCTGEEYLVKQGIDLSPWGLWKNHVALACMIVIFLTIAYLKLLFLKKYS
T2 sequence (Q9UNQ0 whole entry, species assumed): as above
T3 sequence (P00533 25-1210 T790M): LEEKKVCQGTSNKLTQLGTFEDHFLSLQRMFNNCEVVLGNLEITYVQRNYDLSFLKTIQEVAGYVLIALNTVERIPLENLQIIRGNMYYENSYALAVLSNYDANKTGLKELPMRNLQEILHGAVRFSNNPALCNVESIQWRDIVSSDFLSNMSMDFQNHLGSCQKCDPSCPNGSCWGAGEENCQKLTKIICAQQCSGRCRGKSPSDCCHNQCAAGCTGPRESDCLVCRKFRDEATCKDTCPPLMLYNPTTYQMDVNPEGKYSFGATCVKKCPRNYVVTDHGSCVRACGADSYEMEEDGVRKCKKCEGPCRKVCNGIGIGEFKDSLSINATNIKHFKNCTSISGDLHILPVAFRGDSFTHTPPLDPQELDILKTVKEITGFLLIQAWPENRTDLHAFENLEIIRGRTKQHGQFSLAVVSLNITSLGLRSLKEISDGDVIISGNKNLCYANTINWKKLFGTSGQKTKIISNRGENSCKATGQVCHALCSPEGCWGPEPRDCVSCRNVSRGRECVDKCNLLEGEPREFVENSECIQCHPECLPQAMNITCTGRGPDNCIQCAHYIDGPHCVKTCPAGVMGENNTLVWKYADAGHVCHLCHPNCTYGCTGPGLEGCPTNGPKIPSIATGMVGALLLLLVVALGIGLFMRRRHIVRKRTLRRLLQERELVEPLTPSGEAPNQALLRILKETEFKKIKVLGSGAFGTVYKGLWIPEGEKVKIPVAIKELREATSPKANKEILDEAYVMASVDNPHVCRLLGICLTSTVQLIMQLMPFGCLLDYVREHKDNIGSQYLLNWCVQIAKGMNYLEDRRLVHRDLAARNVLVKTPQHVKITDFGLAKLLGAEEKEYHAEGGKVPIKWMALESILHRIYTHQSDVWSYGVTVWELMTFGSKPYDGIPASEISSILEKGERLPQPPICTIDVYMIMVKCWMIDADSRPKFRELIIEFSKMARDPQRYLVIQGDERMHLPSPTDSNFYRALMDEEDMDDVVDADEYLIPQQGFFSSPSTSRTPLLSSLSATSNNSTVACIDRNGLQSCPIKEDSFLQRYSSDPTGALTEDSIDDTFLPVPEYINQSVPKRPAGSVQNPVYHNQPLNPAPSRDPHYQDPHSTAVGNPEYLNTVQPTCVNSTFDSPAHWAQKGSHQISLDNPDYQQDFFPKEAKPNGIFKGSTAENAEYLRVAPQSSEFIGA
P-gp, sequence (P08183 whole entry): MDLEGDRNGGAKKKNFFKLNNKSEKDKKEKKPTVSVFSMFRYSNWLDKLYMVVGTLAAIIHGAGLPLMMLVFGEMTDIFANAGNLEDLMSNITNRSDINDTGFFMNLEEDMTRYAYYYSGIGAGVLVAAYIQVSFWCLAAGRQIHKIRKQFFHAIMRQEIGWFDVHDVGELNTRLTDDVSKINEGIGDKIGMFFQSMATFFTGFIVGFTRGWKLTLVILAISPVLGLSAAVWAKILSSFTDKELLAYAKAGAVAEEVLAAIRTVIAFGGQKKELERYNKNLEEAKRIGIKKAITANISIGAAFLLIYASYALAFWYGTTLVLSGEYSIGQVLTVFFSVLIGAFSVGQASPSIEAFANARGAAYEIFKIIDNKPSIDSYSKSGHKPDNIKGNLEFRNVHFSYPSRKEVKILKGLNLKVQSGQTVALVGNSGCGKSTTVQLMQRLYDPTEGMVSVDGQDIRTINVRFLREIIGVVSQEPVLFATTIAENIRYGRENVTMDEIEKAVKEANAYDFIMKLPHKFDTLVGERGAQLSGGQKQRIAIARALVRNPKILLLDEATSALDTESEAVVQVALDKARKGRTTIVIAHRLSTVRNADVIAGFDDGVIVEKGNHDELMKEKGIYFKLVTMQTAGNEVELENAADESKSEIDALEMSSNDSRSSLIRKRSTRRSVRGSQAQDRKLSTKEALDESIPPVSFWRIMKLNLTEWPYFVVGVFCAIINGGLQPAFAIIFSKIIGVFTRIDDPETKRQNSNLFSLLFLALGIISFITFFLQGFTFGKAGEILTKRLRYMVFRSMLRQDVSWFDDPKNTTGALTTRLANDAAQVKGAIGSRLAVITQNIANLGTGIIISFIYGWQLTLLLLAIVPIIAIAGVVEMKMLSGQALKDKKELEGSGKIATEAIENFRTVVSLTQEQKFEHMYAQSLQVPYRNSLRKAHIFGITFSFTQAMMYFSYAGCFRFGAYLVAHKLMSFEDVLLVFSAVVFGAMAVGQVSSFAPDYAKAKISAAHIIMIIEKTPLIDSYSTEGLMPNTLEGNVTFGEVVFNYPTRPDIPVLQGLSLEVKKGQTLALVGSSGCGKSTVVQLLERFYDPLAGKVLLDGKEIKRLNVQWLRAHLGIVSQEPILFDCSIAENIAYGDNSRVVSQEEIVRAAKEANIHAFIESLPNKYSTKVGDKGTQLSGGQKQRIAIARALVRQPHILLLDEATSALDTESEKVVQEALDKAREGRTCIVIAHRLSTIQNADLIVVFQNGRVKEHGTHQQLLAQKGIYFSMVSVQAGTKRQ
FRK, sequence (P42685 whole entry): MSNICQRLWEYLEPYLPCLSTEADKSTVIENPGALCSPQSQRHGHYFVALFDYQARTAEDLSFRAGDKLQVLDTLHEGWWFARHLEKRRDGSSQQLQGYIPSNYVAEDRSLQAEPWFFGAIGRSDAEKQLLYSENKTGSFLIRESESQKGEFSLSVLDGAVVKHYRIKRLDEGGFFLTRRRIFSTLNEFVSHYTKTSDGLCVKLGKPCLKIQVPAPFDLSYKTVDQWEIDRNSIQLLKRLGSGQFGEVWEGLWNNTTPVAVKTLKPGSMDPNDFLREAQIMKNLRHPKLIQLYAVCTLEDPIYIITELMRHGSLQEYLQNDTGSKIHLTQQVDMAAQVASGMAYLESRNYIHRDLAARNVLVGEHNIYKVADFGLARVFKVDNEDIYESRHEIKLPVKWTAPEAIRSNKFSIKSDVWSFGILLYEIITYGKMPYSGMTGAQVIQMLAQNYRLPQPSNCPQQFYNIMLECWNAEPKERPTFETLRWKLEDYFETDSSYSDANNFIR

Question: What does the source list for `C#Cc1cccc(Nc2c3cc(OCCOC)c(OCCOC)cc3nc[n+]2[Pt@SP2-2]([NH3+])([NH3+])[Cl])c1` [2a, cisplatin-erlotinib]?
Answer: Percent control [1]: 12%; Percent control [2]: 41%; Percent control [3]: 16%; Percent control [4]: 91%; A to B transport (apparent permeability) [5]: 7.21 × 10^−6; B to A transport (apparent permeability) [5]: 7.88 × 10^−6; Percent control [6]: 16%

Question: How did the Percent control [7] turn out when `Cc1ccc(NC(=O)c2ccc(CN3CCN(C)CC3)cc2)cc1Nc1nccc(-c2cccnc2)[n+]1[Pt-2]1([Cl])[NH2+]C2CCCCC2[NH2+]1` (stereo not shown) [1b, oxaliplatin-imatinib] was run?
Answer: Its Percent control is 78%.

Question: And the IC50 [8]?
Answer: The IC50 was 10.6 ± 1.58 µM.

Question: And the IC50 ([9]; CML cell line, Bcr-Abl positive, Table 1, read-out: Anticancer activity (IC50) K562)?
Answer: The IC50 was 2.27 ± 0.33 µM.

Question: What about the IC50 ([9]; Table 2, read-out: Anticancer activity (IC50) K562 Sensitive parental) of the same compound?
Answer: Its IC50 is 2.27 ± 0.33 µM.

Question: And the Percent control [10]?
Answer: The Percent control was 81%.

Question: What does the source list for `COc1cc2c(Nc3ccc(Br)cc3F)ncnc2cc1OCC1CCN(C)CC1` [Vandetanib, reference compound]?
Answer: remaining activity at 10 µM [11]: 0.7%; remaining activity at 10 µM [12]: 1.7%; remaining activity at 10 µM [13]: 2.2%

Question: Which remaining activity at 10 µM [14] does the source give for `Cc1ccc(NC(=O)c2ccc(CN3CCN(C)CC3)cc2)cc1Nc1nccc(-c2cccnc2)n1` [Imatinib, reference compound] here?
Answer: The remaining activity at 10 µM was 100%.

Question: And the remaining activity at 10 µM [15]?
Answer: The remaining activity at 10 µM was 100%.

Question: With `C#Cc1cccc(Nc2ncnc3cc(OCCOC)c(OCCOC)cc23)c1` [Erlotinib] as the compound, how does the remaining activity at 10 µM [16] read?
Answer: Its remaining activity at 10 µM is 0.8%.

Question: And the remaining activity at 10 µM [17]?
Answer: The remaining activity at 10 µM was 0.7%.

Question: What about the Papp A→B at 120 min, 10 μM ([18]; read-out: A to B transport (apparent permeability)) of the same compound?
Answer: Its Papp A→B at 120 min, 10 μM is 14.9 ×10⁻⁶ cm/s.

Question: And the Papp B→A at 120 min, 10 μM ([18]; read-out: B to A transport (apparent permeability))?
Answer: The Papp B→A at 120 min, 10 μM was 45.4 ×10⁻⁶ cm/s.

Question: And the remaining activity at 10 µM [19]?
Answer: The remaining activity at 10 µM was 2.2%.

Question: And the Papp A→B at 120 min, 10 μM [20]?
Answer: Its Papp A→B at 120 min, 10 μM is 18.4 ×10⁻⁶ cm/s.

Question: What about the Papp B→A at 120 min, 10 μM [20] of the same compound?
Answer: The Papp B→A at 120 min, 10 μM was 74.2 ×10⁻⁶ cm/s.

Question: And the remaining activity at 10 µM [21]?
Answer: Its remaining activity at 10 µM is 100%.
